Assay results: US20240115681A1 (priority 2022, published 2024)
In the oligonucleotide strings, read from the 5' end, every base follows the letter of its sugar. An asterisk marks phosphorothioate; unmarked linkages are phosphodiester. Other units and linkages are bracketed, terminal groups are in braces. A string of capitals states the bases alone. d = 2'-deoxy (DNA)

Legend:
Mouse BMDCs [1] = experiment: Surface marker expression on BMDCs by flow cytometry; format: cell-based; details: CpG-2722 5 μg/ml, c-di-AM(PS)2 1 μg/ml, 24 h, CD11c+ cells (FIG. 6)
Mouse splenocytes = experiment: Cytokine expression in splenocytes by RT-qPCR; format: cell-based; details: 4 h (FIG. 8)
recombinant S protein = system: recombinant S protein; set-up: species or system SARS-CoV-2; details: in vivo
[2] = system: mouse embryonic fibroblasts (MEFs); experiment: Cytokine expression in MEFs by RT-qPCR; format: cell-based; details: CpG-2722 5 μg/ml, c-di-AM(PS)2 1 μg/ml, 4 h (FIG. 10)
Mouse BMDCs [3] = experiment: Cytokine expression in BMDCs by RT-qPCR; format: cell-based; details: 4 h (FIG. 7); for expression of cytokine genes (TNF-α, IL-1β, IL-6, IL-12A, IL-12B, IL-23A, IFN-β, IFN-γ): CpG-2722 5 μg/ml, c-di-AM(PS)2 1 μg/ml
splenocytes = experiment: Antigen-dependent T helper responses: cytokine ELISA of RBD-stimulated splenocytes from immunized mice; format: in vivo, mouse; details: splenocytes of intramuscularly immunized mice stimulated with RBD for 96 h (FIG. 5A-5C)
[4] = system: NHRI-HN1 syngeneic orthotopic cancer animal model; set-up: species or system mice; details: mouse, in vivo
Mouse PBMCs = experiment: Cytokine expression in PBMCs by RT-qPCR; format: cell-based; details: CpG-2722 5 μg/ml, c-di-AM(PS)2 1 μg/ml, 4 h (FIG. 9)
[5] = system: influenza VLP (viral like particle); experiment: Antibody titers after intranasal influenza VLP/adjuvant vaccines in BALB/c mice; details: intranasal days 0, 15, 29, after the 3rd vaccination (day 42) (FIG. 15B)

Compound: Nc1ncnc2c1ncn2[C@@H]1O[C@@H]2COP(O)(=S)O[C@@H]3C(O)[C@@H](COP(O)(=S)O[C@H]2[C@H]1O)O[C@H]3n1cnc2c(N)ncnc21 (some centres unmarked) [2′3′-c-di-AM(PS)2]
- surface expression of CCR7 (Mouse BMDCs [1]): none of these two agonists activated expression of the CCR7
- surface expression of CD80 (Mouse BMDCs [1]): induced the expression of CD80 and CD86
- surface expression of CD86 (Mouse BMDCs [1]): induced the expression of CD80 and CD86
- expression of IFN-β, IL-4, IL-5, and IL-13 (Mouse splenocytes): induced the expression of IFN-β, IL-4, IL-5, and IL-13 more potently
- expression of IL-12A and IL-12B (Mouse splenocytes): not induced
- anti-S protein IgG titer (recombinant S protein): became apparent
- serum anti-S IgA production (recombinant S protein): did not elicit the production of serum anti-S IgA
- cytokine gene expression (TNF-α, IL-1β, IL-6, IL-12B, IL-23A, IFN-β) [2]: induced the gene expression of TNF-α, IL-1β, IL-6, IL-12B, IL-23A, and IFN-β
- expression of IFN-α (Mouse BMDCs [3]): induced the expression of IFN-α
- expression of IL-2 (Mouse BMDCs [3]): not induced by either of these two agonists alone
- expression of cytokine genes (TNF-α, IL-1β, IL-6, IL-12A, IL-12B, IL-23A, IFN-β, IFN-γ) (Mouse BMDCs [3]): induced the expressions of TNF-α, IL-1β, IL-6, IL-12A, IL-12B, IL-23A, IFN-β, and IFN-γ genes
- antigen-dependent Th responses (IFN-γ for Th1, IL-17A for Th17, IL-4, IL-5, IL-13 for Th2) (splenocytes): induced an antigen-dependent Th2 response

Compound: Nc1ncnc2c1ncn2[C@@H]1O[C@@H]2COP(=O)(O)O[C@@H]3[C@H](O)[C@@H](COP(=O)(O)O[C@H]2[C@H]1O)O[C@H]3n1cnc2c(N)ncnc21 [2′3′-c-di-AMP]
- tumor growth suppression [4]: some level of tumor growth suppression

Compound: CpG-2722 (DNA dG*dT*dT*dG*dT*dC*dG*dT*dT*dT*dT*dT*dT*dG*dT*dC*dG*dT*dT)
- surface expression of CCR7 (Mouse BMDCs [1]): none of these two agonists activated expression of the CCR7
- surface expression of CD40 (Mouse BMDCs [1]): induced expression of CD40
- expression of TNF-α, IL-1β, IL-6, IL-12A, IL-12B, IL-23A, IFN-β, IFN-γ (Mouse splenocytes; CpG-2722 5 μg/ml, c-di-AM(PS)2 1 μg/ml): more potent than c-di-AM(PS)2
- anti-S protein IgG titer (recombinant S protein): became apparent
- serum anti-S IgA production (recombinant S protein): did not elicit the production of serum anti-S IgA
- mRNA expression of TNF-α, IL-1β, IL-6, IL-12A, IL-12B, IL-23A, IFN-β, IFN-γ (Mouse PBMCs): higher induction by CpG-2722 treatment alone than that induced by the c-di-AM(PS)2 treatment alone
- cytokine gene expression (TNF-α, IL-1β, IL-6, IL-12B, IL-23A, IFN-β) [2]: not observed
- expression of IL-1β (Mouse BMDCs [3]): strongly induced
- expression of IL-2 (Mouse BMDCs [3]): not induced by either of these two agonists alone
- expression of cytokine genes (TNF-α, IL-1β, IL-6, IL-12A, IL-12B, IL-23A, IFN-β, IFN-γ) (Mouse BMDCs [3]): induced the expressions of TNF-α, IL-1β, IL-6, IL-12A, IL-12B, IL-23A, IFN-β, and IFN-γ genes
- tumor growth suppression [4]: some level of tumor growth suppression
- anti-VLP IgG titer [5]: does not further increase the IgG titer
- antigen-dependent Th responses (IFN-γ for Th1, IL-17A for Th17, IL-4, IL-5, IL-13 for Th2) (splenocytes): preferentially induced antigen-dependent Th1 and Th17 responses
